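Assay format: 96-well plates, 48-hour exposure. TGI marks complete inhibition of growth.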
Legend:
Assay in all cases: growth of human tumour cells (NCI), 48 h
U251 CNS = test system: U251 CNS
OVCAR-5 ovarian = test system: OVCAR-5 ovarian
MALME-3M melanoma = test system: MALME-3M melanoma
CCRF-CEM leukemia = test system: CCRF-CEM leukemia
SF-268 CNS = test system: SF-268 CNS
HOP-92 NSCLC = test system: HOP-92 NSCLC
M14 melanoma = test system: M14 melanoma
BT-549 breast = test system: BT-549 breast
SK-OV-3 ovarian = test system: SK-OV-3 ovarian
SF-539 CNS = test system: SF-539 CNS
OVCAR-4 ovarian = test system: OVCAR-4 ovarian
NCI/ADR-RES ovarian = test system: NCI/ADR-RES ovarian
ACHN renal = test system: ACHN renal
MDA-N = test system: MDA-N
HCC-2998 colon = test system: HCC-2998 colon
DU-145 prostate = test system: DU-145 prostate
MCF7 breast = test system: MCF7 breast
SNB-19 CNS = test system: SNB-19 CNS
CAKI-1 renal = test system: CAKI-1 renal
EKVX NSCLC = test system: EKVX NSCLC
786-0 renal = test system: 786-0 renal
OVCAR-3 ovarian = test system: OVCAR-3 ovarian
A549 NSCLC = test system: A549 NSCLC
SNB-75 CNS = test system: SNB-75 CNS
T-47D breast = test system: T-47D breast
UACC-257 melanoma = test system: UACC-257 melanoma
HT29 colon = test system: HT29 colon
LOX IMVI melanoma = test system: LOX IMVI melanoma
IGROV1 ovarian = test system: IGROV1 ovarian
RPMI-8226 leukemia = test system: RPMI-8226 leukemia
HL-60(TB) leukemia = test system: HL-60(TB) leukemia
UO-31 renal = test system: UO-31 renal
HCT-116 colon = test system: HCT-116 colon
MDA-MB-231 breast = test system: MDA-MB-231 breast
NCI-H226 lung = test system: NCI-H226 lung
SR leukemia = test system: SR leukemia
SK-MEL-5 melanoma = test system: SK-MEL-5 melanoma
SF-295 CNS = test system: SF-295 CNS
PC-3 prostate = test system: PC-3 prostate
KM12 colon = test system: KM12 colon
NCI-H460 lung = test system: NCI-H460 lung
SW-620 colon = test system: SW-620 colon
UACC-62 melanoma = test system: UACC-62 melanoma
K-562 leukemia = test system: K-562 leukemia
OVCAR-8 ovarian = test system: OVCAR-8 ovarian
SN12C renal = test system: SN12C renal
NCI-H522 lung = test system: NCI-H522 lung
HCT-15 colon = test system: HCT-15 colon
NCI-H23 lung = test system: NCI-H23 lung
HS 578T breast = test system: HS 578T breast
SK-MEL-2 melanoma = test system: SK-MEL-2 melanoma
RXF 393 renal = test system: RXF 393 renal
TK-10 renal = test system: TK-10 renal
SK-MEL-28 melanoma = test system: SK-MEL-28 melanoma
MOLT-4 leukemia = test system: MOLT-4 leukemia
MDA-MB-435 = test system: MDA-MB-435
COLO 205 colon = test system: COLO 205 colon
HOP-62 NSCLC = test system: HOP-62 NSCLC
A498 renal = test system: A498 renal

## O=c1cc(N=Nc2ccc(Cl)cc2)[nH]c(=O)[nH]1
U251 CNS
  TGI: 12.6 µM
OVCAR-5 ovarian
  TGI: 32.2 µM
MALME-3M melanoma
  TGI: 8.71 µM
CCRF-CEM leukemia
  TGI: 4.94 µM
SF-268 CNS
  TGI: 12.3 µM
HOP-92 NSCLC
  TGI: 5.48 µM
M14 melanoma
  TGI: 9.19 µM
BT-549 breast
  TGI: 8.38 µM
SK-OV-3 ovarian
  TGI: 22 µM
SF-539 CNS
  TGI: 10.2 µM
OVCAR-4 ovarian
  TGI: 9.03 µM
NCI/ADR-RES ovarian
  TGI: 12.5 µM
ACHN renal
  TGI: 5.76 µM
MDA-N
  TGI: 11 µM
HCC-2998 colon
  TGI: 9.1 µM
DU-145 prostate
  TGI: 22.6 µM
MCF7 breast
  TGI: 22.8 µM
SNB-19 CNS
  TGI: 25.2 µM
CAKI-1 renal
  TGI: 4.12 µM
EKVX NSCLC
  TGI: 8.5 µM
786-0 renal
  TGI: 3.21 µM
OVCAR-3 ovarian
  TGI: 9.53 µM
A549 NSCLC
  TGI: 18.8 µM
SNB-75 CNS
  TGI: 22.1 µM
T-47D breast
  TGI: 11.9 µM
UACC-257 melanoma
  TGI: 10.6 µM
HT29 colon
  TGI: 5.44 µM
LOX IMVI melanoma
  TGI: 3.45 µM
IGROV1 ovarian
  TGI: 8.92 µM
RPMI-8226 leukemia
  TGI: 12 µM
HL-60(TB) leukemia
  TGI: 3.89 µM
UO-31 renal
  TGI: 10.6 µM
HCT-116 colon
  TGI: 3.87 µM
MDA-MB-231 breast
  TGI: 8.28 µM
NCI-H226 lung
  TGI: 20.4 µM
SR leukemia
  TGI: 2.67 µM
SK-MEL-5 melanoma
  TGI: 21.4 µM
SF-295 CNS
  TGI: 22.3 µM
PC-3 prostate
  TGI: 11.7 µM
KM12 colon
  TGI: 10.6 µM
NCI-H460 lung
  TGI: 12.2 µM
SW-620 colon
  TGI: 5.65 µM
UACC-62 melanoma
  TGI: 7.11 µM
K-562 leukemia
  TGI: > 31.6 µM
OVCAR-8 ovarian
  TGI: 12 µM
SN12C renal
  TGI: 9.45 µM
NCI-H522 lung
  TGI: 3.63 µM
HCT-15 colon
  TGI: 4.43 µM
NCI-H23 lung
  TGI: 14.1 µM
HS 578T breast
  TGI: 12.7 µM
SK-MEL-2 melanoma
  TGI: 21.5 µM
RXF 393 renal
  TGI: 10.2 µM
TK-10 renal
  TGI: 13.5 µM
SK-MEL-28 melanoma
  TGI: 13.5 µM
MOLT-4 leukemia
  TGI: 7.5 µM
MDA-MB-435
  TGI: 14 µM
COLO 205 colon
  TGI: 5.81 µM
HOP-62 NSCLC
  TGI: 30.1 µM

## C=CCN(c1cc(OC)c2[nH]cc(C)c2c1[N+](=O)[O-])S(C)(=O)=O
U251 CNS
  TGI: > 100 µM
OVCAR-5 ovarian
  TGI: > 100 µM
MALME-3M melanoma
  TGI: > 100 µM
CCRF-CEM leukemia
  TGI: > 100 µM
SF-268 CNS
  TGI: > 100 µM
M14 melanoma
  TGI: > 100 µM
BT-549 breast
  TGI: > 100 µM
SK-OV-3 ovarian
  TGI: > 100 µM
SF-539 CNS
  TGI: > 100 µM
OVCAR-4 ovarian
  TGI: > 100 µM
NCI/ADR-RES ovarian
  TGI: > 100 µM
ACHN renal
  TGI: > 100 µM
MDA-N
  TGI: > 100 µM
HCC-2998 colon
  TGI: > 100 µM
DU-145 prostate
  TGI: > 100 µM
MCF7 breast
  TGI: > 100 µM
SNB-19 CNS
  TGI: > 100 µM
CAKI-1 renal
  TGI: > 100 µM
EKVX NSCLC
  TGI: > 100 µM
A498 renal
  TGI: > 100 µM
786-0 renal
  TGI: > 100 µM
OVCAR-3 ovarian
  TGI: > 100 µM
A549 NSCLC
  TGI: > 100 µM
SNB-75 CNS
  TGI: > 100 µM
T-47D breast
  TGI: > 100 µM
UACC-257 melanoma
  TGI: > 100 µM
LOX IMVI melanoma
  TGI: > 100 µM
IGROV1 ovarian
  TGI: > 100 µM
RPMI-8226 leukemia
  TGI: > 100 µM
HL-60(TB) leukemia
  TGI: > 100 µM
UO-31 renal
  TGI: > 100 µM
HCT-116 colon
  TGI: > 100 µM
MDA-MB-231 breast
  TGI: > 100 µM
NCI-H226 lung
  TGI: > 100 µM
SR leukemia
  TGI: > 100 µM
SK-MEL-5 melanoma
  TGI: > 100 µM
SF-295 CNS
  TGI: > 100 µM
PC-3 prostate
  TGI: > 100 µM
KM12 colon
  TGI: > 100 µM
NCI-H460 lung
  TGI: > 100 µM
SW-620 colon
  TGI: > 100 µM
UACC-62 melanoma
  TGI: > 100 µM
K-562 leukemia
  TGI: > 100 µM
OVCAR-8 ovarian
  TGI: > 100 µM
SN12C renal
  TGI: > 100 µM
NCI-H522 lung
  TGI: > 100 µM
HCT-15 colon
  TGI: > 100 µM
NCI-H23 lung
  TGI: > 100 µM
HS 578T breast
  TGI: > 100 µM
SK-MEL-2 melanoma
  TGI: > 100 µM
RXF 393 renal
  TGI: > 100 µM
TK-10 renal
  TGI: > 100 µM
SK-MEL-28 melanoma
  TGI: > 100 µM
MOLT-4 leukemia
  TGI: > 100 µM
MDA-MB-435
  TGI: > 100 µM
COLO 205 colon
  TGI: > 100 µM
HOP-62 NSCLC
  TGI: > 100 µM

## CC(=O)N1c2ccccc2C(C)C1c1[nH]c2ccccc2c1C (stereo not drawn)
U251 CNS
  TGI: 51.5 µM
OVCAR-5 ovarian
  TGI: 34 µM
MALME-3M melanoma
  TGI: > 100 µM
CCRF-CEM leukemia
  TGI: > 100 µM
SF-268 CNS
  TGI: 62 µM
M14 melanoma
  TGI: 42.5 µM
BT-549 breast
  TGI: 58.1 µM
SK-OV-3 ovarian
  TGI: 43.9 µM
SF-539 CNS
  TGI: 27.2 µM
OVCAR-4 ovarian
  TGI: > 100 µM
NCI/ADR-RES ovarian
  TGI: > 100 µM
ACHN renal
  TGI: > 100 µM
MDA-N
  TGI: 50.6 µM
HCC-2998 colon
  TGI: 34 µM
DU-145 prostate
  TGI: > 100 µM
MCF7 breast
  TGI: > 100 µM
SNB-19 CNS
  TGI: > 100 µM
CAKI-1 renal
  TGI: 70.6 µM
EKVX NSCLC
  TGI: > 100 µM
A498 renal
  TGI: 53.8 µM
786-0 renal
  TGI: 39.9 µM
OVCAR-3 ovarian
  TGI: 46.1 µM
A549 NSCLC
  TGI: 83.2 µM
SNB-75 CNS
  TGI: 50.1 µM
T-47D breast
  TGI: 91.5 µM
UACC-257 melanoma
  TGI: 49.3 µM
HT29 colon
  TGI: 57.1 µM
LOX IMVI melanoma
  TGI: > 100 µM
IGROV1 ovarian
  TGI: > 100 µM
RPMI-8226 leukemia
  TGI: 73 µM
HL-60(TB) leukemia
  TGI: 44.4 µM
UO-31 renal
  TGI: 47.6 µM
HCT-116 colon
  TGI: 41.6 µM
MDA-MB-231 breast
  TGI: 53.5 µM
NCI-H226 lung
  TGI: 72.3 µM
SR leukemia
  TGI: 51.8 µM
SK-MEL-5 melanoma
  TGI: 28.3 µM
SF-295 CNS
  TGI: 32 µM
PC-3 prostate
  TGI: > 100 µM
KM12 colon
  TGI: 38.4 µM
NCI-H460 lung
  TGI: > 100 µM
SW-620 colon
  TGI: > 100 µM
UACC-62 melanoma
  TGI: 48.9 µM
K-562 leukemia
  TGI: > 100 µM
OVCAR-8 ovarian
  TGI: 57.3 µM
SN12C renal
  TGI: 33.9 µM
NCI-H522 lung
  TGI: 49.2 µM
HCT-15 colon
  TGI: > 100 µM
NCI-H23 lung
  TGI: > 100 µM
HS 578T breast
  TGI: 42.4 µM
SK-MEL-2 melanoma
  TGI: 40.2 µM
RXF 393 renal
  TGI: 28.4 µM
TK-10 renal
  TGI: 76.1 µM
SK-MEL-28 melanoma
  TGI: 49.3 µM
MOLT-4 leukemia
  TGI: 77.3 µM
MDA-MB-435
  TGI: 50.4 µM
COLO 205 colon
  TGI: 27.9 µM
HOP-62 NSCLC
  TGI: 36.6 µM

Source: PubChem BioAssay (NCI)
